In patent publication US20240000753A1, “METHODS AND COMPOSITIONS TO INCREASE LIFESPAN AND HEALTHSPAN BY MIMICKING THE EFFECTS OF TIME-RESTRICTED FEEDING” (The Trustees of Columbia University in the City of New York, priority 2020, published 2024):

Tested on: Drosophila
Assay: Lifespan analysis of flies fed RU486
Assay type: in vivo
Conditions: flies lacking UAS-RNAi transgenes; RU486 fed from day 5 post-eclosion until death (FIG. 5K)
Method: All drugs were supplemented into cooled (65° C.) liquid adult medium (containing 3% yeast extract) following preparation to the following final concentration(s): RU486 (Cayman Chemical) was dissolved in ethanol was supplemented into medium after day 5 of eclosion at a final concentration of 100 μg/mL (with the exception of daGS>UAS-atg1 and controls, 0.5 μg/mL) vehicle controls were supplemented with same volume of ethanol alone. Timed RU486 feeding of daGS>UAS-atg1 consisted of flies being fed 0.5 μg/mL in standard adult media or fasting media only during the fasting phase, then flipped to vehicle control food the following morning only from days 10-40 of adulthood. Vehicle only controls were flipped at the same time for consistency. For gut microbe clearance, the medium contained 500 μg/mL ampicillin, 50 μg/mL tetracycline, and 200 μg/mL rifamycin in 50% ethanol. Same volume of 50% ethanol alone was used as the vehicle control. Drosophila were reared from embryos in low-density bottles with standard yeast cornmeal-agar media listed above (Archon Scientific) Newly eclosed flies (˜24 hours) were collected onto adult medium w/3% yeast extract and allowed to mate for 48 hours. […] Death was scored at time of flipping, and lifespan compared by log-rank analysis.

With `CC#C[C@]1(O)CC[C@H]2[C@@H]3CCC4=CC(=O)CCC4=C3[C@@H](c3ccc(N(C)C)cc3)C[C@@]21C` [RU486] the “effect on iTRF-mediated lifespan extension” value was “no effect”.
